Positions of bridges follow the written chain, without caps; N, C: chain ends. Chains are numbered I, II in the order given. No end group written: not given here.
Legend:
[1] = test system: primary retinal capillary endothelial cells or bovine heart endothelial cells; experiment: Endothelial cell proliferation inhibition assay; type: cell-based; details: for IC50, inhibition of endothelial cell proliferation: endothelial cells with 20 ng/ml fibroblast growth factor, grown four days, cell count, average of 4 wells (FIG. 1); for IC50: same experiment, IC50 restated in nM; for potency of endothelial cell proliferation inhibition compared with PF-4: under identical conditions as PF-4
Description: Primary retinal capillary endothelial cell cultures were prepared in substantial accordance with the procedure described in Buzney et al., Retinal Vascular Endothelial Cells and Pericytes: Differential Growth Characteristics in vitro, Invest. Opthalmol. Visual Sci. 24: 470-483 (1983) and separated from contaminating cells as described in Voyta et al., Identification and Isolation of Endothelial Cells Based on their Increased Uptake of Acetylated-low density Lipoprotein, J. Cell Biol, 99: 2034-2040 (1981).
Alternatively, bovine heart endothelial cells were obtained (American Type Culture Collection; Rockville Md. 20852) for use in the assay. Irrespective of source, the endothelial cells were seeded into 24 well tissue culture plates at a cell density of 10,000 cells/well in Dulbecco's modified Eagle Medium (GIBCO; Grand Island, N.Y.) supplemented with 5% bovine serum albumin, 1% penicillin-streptomycin, 1% L-glutamine, and 20 ng/ml fibroblast growth factor. Immediately after seeding the cells, various amounts of PF-4 (Sigma Chemical Co.; St. Louis, Mo. 63178), MPF-4 , or CPF-4 (isolated as describe in the above examples) were added to individual growth wells. MPF-4 and CPF-4 were tested at final concentrations ranging from 0.001 to 1 μg/ml. For comparison, native PF-4 was tested over a range of 0.001 to 3 μg/ml, and supplemented medium alone served as the negative control. The endothelial cell cultures were allowed to grow for four days at 37° C., 5% CO2 in a humidified tissue culture incubator. The cultures were then harvested individually by trypsinization and counted using a Zm-Coulter Counter (Coulter Electronics. Inc.; Opa Locka Fla. 33054).
The results were plotted in FIG. 1, and each point on the graph represented the average of 4 data points; ie one growth well per data point.

[2] = Heparin binding (heparin affinity chromatography)
Description: The eluted proteins are then contacted with a heparin affinity resin. The ordinarily skilled artisan will readily realize that this step is best achieved in a column chromatography mode. Heparin affinity columns are commercially available from some of the same vendors mentioned above. In this step, the molecules of interest, both MPF-4 or CPF-4, bind to the heparin column and are eluted using an increasing linear salt gradient. The preferred salt is NaCl, and the portion of the gradient that is preferably collected is the 0.1-2.0M portion. The more highly preferred portion of the gradient to collect is the 0.7-2.0M portion.
The C4-pool was further fractionated by heparin affinity chromatography on a Econo-pac™ 5 ml heparin-sepharose cartridge (Biorad, Richmond, Calif. 94804). The bound proteins were eluted by a linear gradient of 0 to 2.0M NaCl in phosphate buffer saline (PBS) at a flow rate of 2.0 ml/min. The proteins that eluted from the column were pooled into three fractions: (1) non-heparin binding (flow through), (2) low-affinity heparin binding (0 to 0.7M NACl), and (3) high-affinity heparin binding (0.7M to 2.0M NACl) fractions.

With “PF-4: Native platelet factor-4 (Sigma Chemical Co.), tested for comparison [reference compound]” the “IC50, inhibition of endothelial cell proliferation” value (“IC50, inhibition” for short) [1] was 0.8 to 1 µg/mL and the IC50 [1] was about 130 nM.

For “MPF-4: N-terminally processed form of human platelet factor-4, 54 C-terminal residues beginning with Ser-17, SEQ ID NO: 1 (SQVRPRHITSLEVIKAGPHCPTAQLIATLKNGRKICLDLQAPLYKKIIKKLLES)”, the heparin binding [2] was “bind heparin”, the “IC50, inhibition” value [1] was 0.03 to 0.05 µg/mL and the IC50 [1] was about 7 nM. For the same molecule, the “potency of endothelial cell proliferation inhibition compared with PF-4” value [1] was “more potent inhibitors of endothelial cell proliferation”.

B1: CPF-4: Proteolytically cleaved, non-reduced PF-4: 16-residue chain (SEQ ID NO: 2) disulfide bonded to 54-residue chain (SEQ ID NO: 1) (protein)
chain 1: EAEEDGDLQCLCVKTT
chain 2: SQVRPRHITSLEVIKAGPHCPTAQLIATLKNGRKICLDLQAPLYKKIIKKLLES
modifications: disulfide I:10-II:20, I:12-II:36; not fully specified
For B1, the heparin binding [2] was “bind heparin”, the “IC50, inhibition” value [1] was “approximately 150 ng/ml” and the IC50 [1] was about 20 nM. The “potency of endothelial cell proliferation inhibition compared with PF-4” value [1] was “more potent inhibitors of endothelial cell proliferation”.
